According to US8883737B2, “Methods of treating cancer” (Endocyte, Inc., priority 2010, dated 2014):
Values joined by “and” are separate entries in the source; they are usually repeats but may differ in a detail not shown here. Equal values may be shown once. Read-outs that look alike come from different tables or passages of the source. Each block holds one molecule with its values, some of them ahead of it.

Tests used:
[1] = system: KB tumors; assay: In vivo antitumor experiments, s.c. KB tumors; parameters: species or system nu/nu mice
Method: (§1) Four to six week-old female nu/nu mice (Charles River, Wilmington, Mass.) or six to seven week-old female Balb/c mice (Harlan Sprague Dawley, Inc., Indianapolis, Ind.) or four to six week-old female DBA mice (Harlan Sprague Dawley, Inc., Indianapolis, Ind.) were maintained on a standard 12 h light-dark cycle and fed ad libitum with folate-deficient chow (Harlan diet #TD00434, Harlan Teklad, Madison, Wis.) for the duration of the experiment. FR-positive human nasopharyngeal KB cells, human ovarian IGR-OV1 cells, human ovarian OV90 cells and syngeneic mouse lymphocytic leukemia L1210 cells were grown continuously as a monolayer, using folate-free RPMI medium (FFRPMI) containing 10% heat-inactivated fetal calf serum (HIFCS) at 37° C. in a 5% CO2/95% air-humidified atmosphere with no antibiotics. Syngeneic FR-positive Madison 109 (M109) lung carcinoma cells were generated from M109 tumors and cultured for a few days in FFRPMI containing 10% HIFCS for a few days before implantation in mice. KB cells (1×10^6 per nu/nu mouse), M109 cells (1×10^6 per Balb/c mouse), IGR-OV1 cells (4×10^6 per nu/nu mouse) or OV90 cells (1×10^6 per nu/nu mouse) or L1210 cells (2×10^5 per DBA mouse) in 100 μL were injected in the subcutis of the dorsal medial area. Mice were divided into groups of five, and test articles were freshly prepared and injected through the lateral tail vein under sterile conditions in a volume of 200 μL of phosphate-buffered saline (PBS). Intravenous (i.v.) treatments were typically initiated when the tumors were approximately 100-200 mm^3 in volume. The mice in the control groups received no treatment. Growth of each s.c. tumor was followed by measuring the tumor three times per week during treatment and twice per week thereafter until a volume of 1500 mm^3 was reached. Tumors were measured in two perpendicular directions using Vernier calipers, and their volumes were calculated as 0.5×L×W^2, where L=measurement of longest axis in mm and W=measurement of axis perpendicular to L in mm. As a general measure of toxicity, changes in body weights were determined on the same schedule as tumor volume measurements. Survival of animals was monitored daily. Animals that were moribund (or unable to reach food or water) were euthanized by CO2 asphyxiation. All in vivo studies were performed in accordance with the American Accreditation Association of Laboratory Animal Care guidelines.
(§2) For individual tumors, a partial response (PR) was defined as volume regression >50% but with measurable tumor (>2 mm^3) remaining at all times. Complete response (CR) was defined as a disappearance of measurable tumor mass (<2 mm^3) at some point until the end of the study. A cure was defined as a CR without tumor re-growth within the study time frame.

[2] = system: KB tumor cells; assay: Cell growth inhibition (3H-thymidine), KB tumor cells; assay type: cell-based; conditions: Homo sapiens, FIG. 31, read-out: In vitro cytotoxicity IC50
Method: Exponentially growing KB or J6456 cells were seeded in 24-well plates 24 h before treatment with drugs. […] Cells treated with vindesine, DAVLBH or doxorubicin alone were treated for 72 h. A total of five drug concentrations for each drug plus a drug-free control were evaluated. Cells were then treated with fresh medium containing ^3H-thymidine for 2 h at 37° C. Cells were further washed with PBS and treated with ice-cold 5% trichloroacetic acid. After 15 min, the trichloroacetic acid was aspirated and the cells solubilized by the addition of 0.25 N sodium hydroxide for 15 min at room temperature. Each solubilized sample was transferred to scintillation vials containing Ecolume scintillation cocktail and counted in a liquid scintillation counter. […]

[3] = system: IGR-OV1 cells; conditions: FIG. 53, EC145 with or without Lapatinib
[4] = system: M109 tumors; assay: In vivo antitumor experiments, s.c. M109 tumors; parameters: species or system Balb/c mice; conditions: five animals per group
Method: as §1, §2

[5] = system: OV90 cells; conditions: FIG. 53, EC145 with or without Lapatinib
[6] = system: IGR-OV1 cells; assay: cells; conditions: Homo sapiens, IGROV-1
[7] = system: RAW cells; assay: Cell growth inhibition, RAW cells; assay type: cell-based; conditions: FIG. 49
[8] = system: OV90 cells; assay: cells; conditions: Homo sapiens, OV-90
[9] = FIG. 14, M109 tumors 86-149 mm^3, EC145 alone 2 μmol/kg/injection TIW 2 weeks (1 μmol/kg in combination), Gemcitabine 40 mg/kg BIW 5 doses
[10] = FIG. 16, M109 tumors 99-164 mm^3, EC145 alone 2 μmol/kg/injection TIW 2 weeks (1 μmol/kg in combination), Tarceva 100 mg/kg qd5 2 weeks
[11] = FIG. 10, KB tumors 114-177 mm^3, five animals per group, EC145 1 μmol/kg/injection TIW 2 weeks, Irinotecan 40 mg/kg BIW 2 weeks
[12] = FIG. 12, KB tumors 108-222 mm^3, five animals per group, EC145 1 μmol/kg/injection TIW 2 weeks, Avastin 5 mg/kg BIW 2 weeks

Molecule: N.N.O=C([O-])C1(C(=O)[O-])CCC1.[Pt+2] [Carboplatin, carboplatin]
partial responses ([1]; FIG. 1, KB tumors 109-188 mm^3, five animals per group, EC145 1 μmol/kg/injection TIW 2 weeks, Carboplatin 50 mg/kg TIW 1 week): 3

Molecule: N.N.[Cl][Pt][Cl] [Cisplatin, cisplatin]
partial responses ([1]; mouse, in vivo): 2

Molecule: CC[C@]1(O)C[C@@H]2CN(CCc3c([nH]c4ccccc34)[C@@](C(=O)OC)(c3cc4c(cc3OC)N(C)[C@H]3[C@@](O)(C(=O)NN)[C@H](O)[C@]5(CC)C=CCN6CC[C@]43[C@@H]65)C2)C1 [DAVLBH, desacetylvinblastine hydrazide]
effect of unconjugated DAVLBH on Doxil activity ([1]; FIG. 27, DAVLBH 0.75 μmol/kg/injection TIW 2 weeks + DOXIL 5 mg/kg BIW 2 weeks): antagonizes Doxil activity

Molecule: COc1cccc2c1C(=O)c1c(O)c3c(c(O)c1C2=O)C[C@@](O)(C(=O)CO)C[C@@H]3O[C@H]1C[C@H](N)[C@H](O)[C@H](C)O1 [Doxorubicin, doxorubicin]
IC50 [2]: 34 nM

Molecule: CC[C@]1(O)C[C@H]2CN(CCc3c([nH]c4ccccc34)[C@@](C(=O)OC)(c3cc4c(cc3OC)N(C)[C@H]3[C@@](O)(C(=O)NNC(=O)OCCSSC[C@H](NC(=O)[C@H](CC(=O)O)NC(=O)[C@H](CC(=O)O)NC(=O)[C@H](CCCNC(=N)N)NC(=O)[C@H](CC(=O)O)NC(=O)CC[C@H](NC(=O)c5ccc(NCc6cnc7nc(N)[nH]c(=O)c7n6)cc5)C(=O)O)C(=O)O)[C@H](O)[C@]5(CC)C=CCN6CC[C@]43[C@@H]65)C2)C1 [EC145]
complete responses ([1]; mouse, in vivo): 0 | IC50 [3]: 3.58 nM | Cures [4, 9]: 2 | complete responses [4, 9]: 0 | partial responses [4, 9]: 0 | Cures [4, 10]: 0 | complete responses [4, 10]: 0 | partial responses [4, 10]: 0 | Cures ([4]; FIG. 40, M109 tumors, EC145 1 μmol/kg/injection TIW 2 weeks, DOXIL 4 mg/kg BIW 2 weeks): 3/5 and 3 | IC50 [5]: 329 nM

Molecule: Nc1ccn([C@@H]2O[C@H](CO)[C@@H](O)C2(F)F)c(=O)n1 [Gemcitabine, gemcitabine]
Cures [4, 9]: no | complete responses [4, 9]: no | partial responses [4, 9]: no

Molecule: CCc1c2c(nc3ccc(OC(=O)N4CCC(N5CCCCC5)CC4)cc13)-c1cc3c(c(=O)n1C2)COC(=O)[C@]3(O)CC [Irinotecan, irinotecan]
Cures [1, 11]: no | complete responses [1, 11]: no | partial responses [1, 11]: no

IC50 [6]: 1750 nM | IC50 [8]: 2460 nM
Molecule: CS(=O)(=O)CCNCc1ccc(-c2ccc3ncnc(Nc4ccc(OCc5cccc(F)c5)c(Cl)c4)c3c2)o1 [Lapatinib, lapatinib]
IC50 [7]: 2850 nM

Molecule: C#Cc1cccc(Nc2ncnc3cc(OCCOC)c(OCCOC)cc23)c1 [Tarceva, erlotinib]
Cures [4, 10]: no | complete responses [4, 10]: no | partial responses [4, 10]: no

Molecule: CC[C@@]1(O)C(=O)OCc2c1cc1n(c2=O)Cc2cc3c(CN(C)C)c(O)ccc3nc2-1 [Topotecan, topotecan]
Cures ([1]; FIG. 5, KB tumors 144-204 mm^3, five animals per group, EC145 1 μmol/kg/injection TIW 2 weeks, Topotecan 5 mg/kg TIW 2 weeks): no

Molecule: CC[C@]1(O)C[C@@H]2CN(CCc3c([nH]c4ccccc34)[C@@](C(=O)OC)(c3cc4c(cc3OC)N(C)[C@H]3[C@@](O)(C(N)=O)[C@H](O)[C@]5(CC)C=CCN6CC[C@]43[C@@H]65)C2)C1 [vindesine]
effect of unconjugated vindesine on Doxil activity ([1]; FIG. 25/26, vindesine 1 mg/kg/injection TIW 2 weeks + DOXIL 5 mg/kg BIW 2 weeks): antagonizes Doxil activity

Molecule: bevacizumab [Avastin]
Cures [1, 12]: no | complete responses [1, 12]: no | partial responses [1, 12]: no
